The term MIC denotes the lowest concentration found to suppress growth.

Seven compounds from patent US8324198B1, “Monocarbams” (Pfizer Inc., priority 2008, dated 2012) can be followed below.

SMILES strings stand for the structures. In brackets after ≈: the same amount, converted by molar mass. Where a name gives a salt, the structure may show the parent alone.

Test [1] deals with P. aeruginosa 1091-05. The experiment in a line: Murine respiratory tract infection model against P. aeruginosa 1091-05 (PD50). The format is in vivo. The following applies: immunosuppressed C3H/HeN mice, intranasal challenge, subcutaneous BID for two days from 4 h post-challenge, lethality over ten days. Here is the method:
For this model, C3H/HeN mice were immunosuppressed with cyclophosphamide given orally at 150 mg/kg and 100 mg/kg on days −4 and −1 relative to challenge, respectively. Mice were anesthetized with isoflurane (5% in oxygen) and the bacterial inoculum was given to each mouse via intranasal instillation in a 40 μL volume (˜2.8×10^3 cfu per mouse). Mice were dosed with compound administered via subcutaneous injection beginning at four hours post-challenge, and continuing for two days of BID therapy.
PD50 is a measure of the ability of a compound to protect mice from a lethal infection.

The subject of test [2] is P. aeruginosa 1091-05. Description: In vitro MIC, P. aeruginosa 1091-05. It is filed as cell-based. To be noted: Pseudomonas aeruginosa, 109105, read-out: Pa 1091-05 MIC.
The subject of test [3] is Pseudomonas aeruginosa PA0200 MexAB-oprM KO. The experiment in a line: In vitro MIC, Pseudomonas aeruginosa PA0200 MexAB-oprM KO. The format is cell-based. To be noted: PAO1, read-out: MIC Pseudomonas aeruginosa PA0200 MexAB-oprM KO. From the text:
Culture collection strain 1045-06 is resistant to several classes of known antimicrobial agents including carbapenems, aminoglycosides and fluoroquinolones, while strains 1000-02 and 3167 are resistant to cephalosporins. Strain PA0200 is a derivative of laboratory strain PAO1 that lacks a functional MexAB-oprM efflux pump.

`COCCn1c(-c2cc(=O)c(O)c[nH]2)nn(S(=O)(=O)NC(=O)N2C[C@H](NC(=O)/C(=N\OC(C)(C)C(=O)O)c3csc(N)n3)C2=O)c1=O` [Example 15, 2-({[(1Z)-1-(2-amino-1,3-thiazol-4-yl)-2-{[(3S)-1-({[3-(5-hydroxy-4-oxo-1,4-dihydropyridin-2-yl)-4-(2-methoxyethyl)-5-oxo-4,5-dihydro-1H-1,2,4-triazol-1-yl]sulfonyl}carbamoyl)-2-oxoazetidin-3-yl]amino}-2-oxoethylidene]amino}oxy)-2-methylpropanoic acid, disodium salt]: in the test on P. aeruginosa 1091-05 [1], the “RTI PD50 vs. Pa 1091-05 (95% confidence interval)” value is reported as greater than 70.8 mg/kg. In addition, the MIC in the test on P. aeruginosa 1091-05 [2] worked out at 500 µg/mL.

For the compound `CCCn1c(-c2cc(=O)c(O)c[nH]2)nn(S(=O)(=O)NC(=O)N2C[C@H](NC(=O)/C(=N\OC(C)(C)C(=O)O)c3csc(N)n3)C2=O)c1=O` [Example 9, 2-({[(1Z)-1-(2-amino-1,3-thiazol-4-yl)-2-{[(3S)-1-({[3-(5-hydroxy-4-oxo-1,4-dihydropyridin-2-yl)-5-oxo-4-propyl-4,5-dihydro-1H-1,2,4-triazol-1-yl]sulfonyl}carbamoyl)-2-oxoazetidin-3-yl]amino}-2-oxoethylidene]amino}oxy)-2-methylpropanoic acid], the MIC in test [3] is less than 62.5 µg/mL.

For the compound `CC(C)(O/N=C(\C(=O)N[C@H]1CN(C(=O)NS(=O)(=O)n2nc(-c3cc(=O)c(O)c[nH]3)n(CC(O)CO)c2=O)C1=O)c1csc(N)n1)C(=O)O` (stereo partly drawn) [Example 10, 2-({[(1Z)-1-(2-amino-1,3-thiazol-4-yl)-2-{[(3S)-1-({[4-(2,3-dihydroxypropyl)-3-(5-hydroxy-4-oxo-1,4-dihydropyridin-2-yl)-5-oxo-4,5-dihydro-1H-1,2,4-triazol-1-yl]sulfonyl}carbamoyl)-2-oxoazetidin-3-yl]amino}-2-oxoethylidene]amino}oxy)-2-methylpropanoic acid], the MIC in test [3] was 250 µg/mL (≈ 350 µM).

As to `C[C@@H](O)[C@H]1C(=O)N2C(C(=O)O)=C(SCCN=CN)C[C@H]12` [Imipenem, reference compound], the “RTI PD50 vs. Pa 1091-05 (95% confidence interval)” value with P. aeruginosa 1091-05 [1] amounted to 1.04 mg/kg. In addition, the MIC in the test on P. aeruginosa 1091-05 [2] worked out at 500 µg/mL (≈ 1670 µM).

`CCn1c(-c2cc(=O)c(O)c[nH]2)nn(S(=O)(=O)NC(=O)N2C[C@H](NC(=O)C(=NOC(C)(C)C(=O)O)c3csc(N)n3)C2=O)c1=O` (stereo in doubt) [Example 1, 2-({[(1E)-1-(2-amino-1,3-thiazol-4-yl)-2-{[(3S)-1-({[4-ethyl-3-(5-hydroxy-4-oxo-1,4-dihydropyridin-2-yl)-5-oxo-4,5-dihydro-1H-1,2,4-triazol-1-yl]sulfonyl}carbamoyl)-2-oxoazetidin-3-yl]amino}-2-oxoethylidene]amino}oxy)-2-methylpropanoic acid]: the minimal inhibitory concentration (MIC) in test [3] is less than 62.5 µg/mL.

On to `CC(C)(O/N=C(\C(=O)N[C@H]1CN(C(=O)NS(=O)(=O)n2nc(-c3cc(=O)c(O)c[nH]3)n(CCN3CCCC3)c2=O)C1=O)c1csc(N)n1)C(=O)O` [Example 11, 2-({[(1Z)-1-(2-amino-1,3-thiazol-4-yl)-2-{[(3S)-1-({[3-(5-hydroxy-4-oxo-1,4-dihydropyridin-2-yl)-5-oxo-4-(2-pyrrolidin-1-ylethyl)-4,5-dihydro-1H-1,2,4-triazol-1-yl]sulfonyl}carbamoyl)-2-oxoazetidin-3-yl]amino}-2-oxoethylidene]amino}oxy)-2-methylpropanoic acid], for which the MIC in test [3] was 16000 µg/mL (≈ 21700 µM).

Take `CO/N=C(\C(=O)N[C@@H]1C(=O)N2C(C(=O)[O-])=C(C[N+]3(C)CCCC3)CS[C@H]12)c1csc(N)n1` [Cefepime, reference compound]: in the test on P. aeruginosa 1091-05 [1], the “RTI PD50 vs. Pa 1091-05 (95% confidence interval)” value is 22 mg/kg. The MIC in the test with P. aeruginosa 1091-05 [2] stood at 2000 µg/mL (≈ 4160 µM).
